Reference: ChEMBL document CHEMBL1201862, “PubChem BioAssay data set” (2004)
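Dose response: 5 concentrations. Exposure: 48 h. Format: 96-well plates. Endpoint: linear interpolation; highest concentration if not reached. GI50 is the concentration that inhibits growth by half.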 Activity calls are given as the source filed them. Cut-off read from the data, not from the text of the source: active = GI50 up to about 1.1 µM and inactive = higher.

Tests used:
Experiment in all cases: inhibition of tumour cell growth, NCI panel, 48 h
SK-MEL-28 = test system: SK-MEL-28
OVCAR-8 = test system: OVCAR-8
ACHN = test system: ACHN
KM12 = test system: KM12
NCI-H522 = test system: NCI-H522
MOLT-4 = test system: MOLT-4
HOP-18 = test system: HOP-18
M14 = test system: M14
OVCAR-3 = test system: OVCAR-3
RXF 393 = test system: RXF 393
SK-MEL-2 = test system: SK-MEL-2
LOX IMVI = test system: LOX IMVI
HCT-116 = test system: HCT-116
SF-295 = test system: SF-295
NCI-H460 = test system: NCI-H460
TK-10 = test system: TK-10
CCRF-CEM = test system: CCRF-CEM
NCI-H23 = test system: NCI-H23
UACC-62 = test system: UACC-62
K562 = test system: K562
OVCAR-4 = test system: OVCAR-4
Malme-3M = test system: Malme-3M
CAKI-1 = test system: CAKI-1
DMS-273 = test system: DMS-273
A549 = test system: A549
LXFL 529 = test system: LXFL 529
HL-60 = test system: HL-60
SF-268 = test system: SF-268
OVCAR-5 = test system: OVCAR-5
SK-MEL-5 = test system: SK-MEL-5
SF-539 = test system: SF-539
U-251 = test system: U-251
SN12C = test system: SN12C
DLD-1 = test system: DLD-1
UACC-257 = test system: UACC-257
SW-620 = test system: SW-620
HT-29 = test system: HT-29
HOP-62 = test system: HOP-62
SK-OV-3 = test system: SK-OV-3
KM-20L2 = test system: KM-20L2
SNB-78 = test system: SNB-78
DMS-114 = test system: DMS-114
SNB-75 = test system: SNB-75
HCT-15 = test system: HCT-15
HOP-92 = test system: HOP-92
IGROV-1 = test system: IGROV-1
A498 = test system: A498
COLO 205 = test system: COLO 205
EKVX = test system: EKVX
RPMI-8226 = test system: RPMI-8226
SR = test system: SR
786-0 = test system: 786-0
NCI-H226 = test system: NCI-H226
UO-31 = test system: UO-31
SNB-19 = test system: SNB-19
HCC 2998 = test system: HCC 2998
M19-MEL = test system: M19-MEL

## O=C(O/N=C1/CCC/C1=C\c1ccccc1)c1ccccc1
SK-MEL-28
  GI50: > 100 µM (inactive)
OVCAR-8
  GI50: 88.7 µM (inactive)
ACHN
  GI50: > 100 µM (inactive)
KM12
  GI50: > 100 µM (inactive)
NCI-H522
  GI50: 53 µM (inactive)
MOLT-4
  GI50: 27.4 µM (inactive)
HOP-18
  GI50: > 100 µM (inactive)
M14
  GI50: > 100 µM (inactive)
OVCAR-3
  GI50: > 100 µM (inactive)
RXF 393
  GI50: > 100 µM (inactive)
SK-MEL-2
  GI50: > 100 µM (inactive)
LOX IMVI
  GI50: 61.8 µM (inactive)
HCT-116
  GI50: > 100 µM (inactive)
SF-295
  GI50: > 100 µM (inactive)
NCI-H460
  GI50: > 10 µM (inactive)
TK-10
  GI50: > 100 µM (inactive)
CCRF-CEM
  GI50: 48.8 µM (inactive)
NCI-H23
  GI50: > 100 µM (inactive)
UACC-62
  GI50: > 100 µM (inactive)
K562
  GI50: 38.7 µM (inactive)
OVCAR-4
  GI50: > 100 µM (inactive)
Malme-3M
  GI50: > 100 µM (inactive)
CAKI-1
  GI50: > 100 µM (inactive)
DMS-273
  GI50: > 100 µM (inactive)
A549
  GI50: > 100 µM (inactive)
LXFL 529
  GI50: 28.9 µM (inactive)
HL-60
  GI50: 37.8 µM (inactive)
SF-268
  GI50: 38.7 µM (inactive)
OVCAR-5
  GI50: > 100 µM (inactive)
SK-MEL-5
  GI50: 44.6 µM (inactive)
SF-539
  GI50: > 100 µM (inactive)
U-251
  GI50: > 100 µM (inactive)
SN12C
  GI50: > 100 µM (inactive)
DLD-1
  GI50: 43.8 µM (inactive)
UACC-257
  GI50: > 100 µM (inactive)
SW-620
  GI50: > 100 µM (inactive)
HT-29
  GI50: 40.7 µM (inactive)
HOP-62
  GI50: > 100 µM (inactive)
SK-OV-3
  GI50: > 100 µM (inactive)
KM-20L2
  GI50: 58.3 µM (inactive)
SNB-78
  GI50: > 100 µM (inactive)
DMS-114
  GI50: 35 µM (inactive)
SNB-75
  GI50: 47.5 µM (inactive)
HCT-15
  GI50: 59.6 µM
HOP-92
  GI50: > 100 µM (inactive)
IGROV-1
  GI50: > 100 µM (inactive)
A498
  GI50: > 100 µM (inactive)
COLO 205
  GI50: > 100 µM (inactive)
EKVX
  GI50: 29.8 µM (inactive)
RPMI-8226
  GI50: 50.5 µM (inactive)
SR
  GI50: 44.4 µM (inactive)
786-0
  GI50: > 100 µM (inactive)
NCI-H226
  GI50: > 100 µM (inactive)

## Cc1cc(O)nc(NN2C(Cl)C(=O)C2c2cccc([N+](=O)[O-])c2)n1 (stereo not given)
SK-MEL-28
  GI50: 17.1 µM (inactive)
OVCAR-8
  GI50: 34.8 µM (inactive)
ACHN
  GI50: 29.2 µM (inactive)
KM12
  GI50: 25.9 µM (inactive)
MOLT-4
  GI50: 14.3 µM (inactive)
HOP-18
  GI50: 18.5 µM (inactive)
M14
  GI50: 17.3 µM (inactive)
OVCAR-3
  GI50: 14.8 µM (inactive)
RXF 393
  GI50: 10 µM (inactive)
UO-31
  GI50: 36.6 µM (inactive)
SK-MEL-2
  GI50: 19 µM (inactive)
LOX IMVI
  GI50: 12.3 µM (inactive)
HCT-116
  GI50: 19.7 µM (inactive)
NCI-H460
  GI50: 26.3 µM (inactive)
TK-10
  GI50: 38.3 µM (inactive)
CCRF-CEM
  GI50: 3.52 µM (inactive)
NCI-H23
  GI50: 20.7 µM (inactive)
UACC-62
  GI50: 19.4 µM (inactive)
K562
  GI50: 18.3 µM (inactive)
OVCAR-4
  GI50: 23.6 µM (inactive)
DMS-273
  GI50: 15.6 µM (inactive)
A549
  GI50: 76 µM (inactive)
LXFL 529
  GI50: 16 µM (inactive)
HL-60
  GI50: 13.5 µM (inactive)
SF-268
  GI50: 35.2 µM (inactive)
OVCAR-5
  GI50: > 100 µM (inactive)
SNB-19
  GI50: 44 µM (inactive)
SK-MEL-5
  GI50: 17.5 µM (inactive)
U-251
  GI50: 20 µM (inactive)
SN12C
  GI50: 18.1 µM (inactive)
UACC-257
  GI50: 29 µM (inactive)
SW-620
  GI50: 35.1 µM (inactive)
HCC 2998
  GI50: 18.5 µM (inactive)
HT-29
  GI50: 19.6 µM (inactive)
HOP-62
  GI50: 31.4 µM (inactive)
KM-20L2
  GI50: 27.3 µM (inactive)
SNB-78
  GI50: 32.2 µM (inactive)
DMS-114
  GI50: 21.8 µM (inactive)
SNB-75
  GI50: 28 µM (inactive)
M19-MEL
  GI50: 19.5 µM (inactive)
HCT-15
  GI50: 15.1 µM
HOP-92
  GI50: 19.3 µM (inactive)
IGROV-1
  GI50: > 10 µM (inactive)
COLO 205
  GI50: 22.7 µM (inactive)
EKVX
  GI50: 63.4 µM (inactive)
RPMI-8226
  GI50: 13.7 µM (inactive)
SR
  GI50: 16.9 µM (inactive)
NCI-H226
  GI50: 12.3 µM (inactive)

## O=C(c1cccs1)N(C(=S)N1CCN(c2ccccc2)CC1)c1ccccc1
SK-MEL-28
  GI50: > 100 µM (inactive)
OVCAR-8
  GI50: > 100 µM (inactive)
ACHN
  GI50: > 100 µM (inactive)
KM12
  GI50: > 100 µM (inactive)
NCI-H522
  GI50: > 100 µM (inactive)
MOLT-4
  GI50: > 100 µM (inactive)
HOP-18
  GI50: > 100 µM (inactive)
M14
  GI50: > 100 µM (inactive)
OVCAR-3
  GI50: > 100 µM (inactive)
RXF 393
  GI50: > 100 µM (inactive)
UO-31
  GI50: > 100 µM (inactive)
SK-MEL-2
  GI50: > 100 µM (inactive)
LOX IMVI
  GI50: > 100 µM (inactive)
HCT-116
  GI50: > 100 µM (inactive)
SF-295
  GI50: > 100 µM (inactive)
NCI-H460
  GI50: > 100 µM (inactive)
TK-10
  GI50: > 100 µM (inactive)
CCRF-CEM
  GI50: > 100 µM (inactive)
NCI-H23
  GI50: > 100 µM (inactive)
UACC-62
  GI50: > 100 µM (inactive)
K562
  GI50: > 100 µM (inactive)
OVCAR-4
  GI50: > 100 µM (inactive)
Malme-3M
  GI50: > 100 µM (inactive)
CAKI-1
  GI50: > 100 µM (inactive)
DMS-273
  GI50: > 100 µM (inactive)
A549
  GI50: > 100 µM (inactive)
LXFL 529
  GI50: > 100 µM (inactive)
HL-60
  GI50: > 100 µM (inactive)
SF-268
  GI50: > 100 µM (inactive)
OVCAR-5
  GI50: > 100 µM (inactive)
SNB-19
  GI50: > 100 µM (inactive)
SK-MEL-5
  GI50: > 100 µM (inactive)
SF-539
  GI50: > 100 µM (inactive)
U-251
  GI50: > 100 µM (inactive)
SN12C
  GI50: > 100 µM (inactive)
DLD-1
  GI50: > 100 µM (inactive)
UACC-257
  GI50: > 100 µM (inactive)
SW-620
  GI50: > 100 µM (inactive)
HT-29
  GI50: > 100 µM (inactive)
HOP-62
  GI50: > 100 µM (inactive)
SK-OV-3
  GI50: > 100 µM (inactive)
KM-20L2
  GI50: > 100 µM (inactive)
SNB-78
  GI50: > 100 µM (inactive)
DMS-114
  GI50: > 100 µM (inactive)
SNB-75
  GI50: > 100 µM (inactive)
M19-MEL
  GI50: > 100 µM (inactive)
HCT-15
  GI50: > 100 µM
HOP-92
  GI50: > 100 µM (inactive)
IGROV-1
  GI50: > 100 µM (inactive)
COLO 205
  GI50: > 100 µM (inactive)
RPMI-8226
  GI50: > 100 µM (inactive)
SR
  GI50: > 100 µM (inactive)
786-0
  GI50: > 100 µM (inactive)
NCI-H226
  GI50: 47.6 µM (inactive)
